“Also recorded” adds a separate entry of the source. Marks after values point to notes of the source that are not given here.
Assays:
Panagrellus redivivus = test: Ascaroside function (Table 12); type: in vivo; details: listed = has this function
Procedure: (§1) Various ascarosides and ascaroside blends were administered to various nematodes described below (Table 12). […] A very strong result of affecting nematode behavior is designated in the table as “strong.”

C. elegans [1] = test: Ascaroside function (Table 12); type: in vivo, Caenorhabditis elegans; design: key to Attract Females/Herm. / Promote Dauer Formation / Attract Males: A very strong result of affecting nematode behavior is designated in the table as “strong.”; details: listed = has this function
Procedure: as §1

C. elegans [2] = test: Quadrant chemotaxis assay; type: in vivo; details: FIGS. 48A-B; wild-type hermaphrodites
Procedure: Chemotaxis to both non-indole and indole ascarosides was assessed on 10 cm four-quadrant petri plates (Wicks et al., Dev. Biol. 221:295-307 (2000), which is hereby incorporated by reference in its entirety). Each quadrant was separated from adjacent ones by plastic spacers (FIG. 1B). Pairs of opposite quadrants were filled with nematode growth medium (NGM) agar containing either indole ascarosides or non-indole ascarosides at different concentrations. Animals were washed gently in a S-basal buffer, placed in the center of a four-quadrant plate with ascarosides in alternating quadrants, and scored after 15 minutes and 30 minutes. A chemotaxis index was calculated as: (the number of animals on ascaroside quadrants minus the number of animals on buffer quadrants)/(total number of animals).
Chemotaxis to hbas#3 was assessed on 10 cm four-quadrant petri plates (Wicks et al., Dev. Biol. 221:295-307 (2000), which is hereby incorporated by reference in its entirety). Each quadrant was separated from adjacent ones by plastic spacers. Pairs of opposite quadrants were filled with nematode growth medium (NGM) agar containing different concentrations of hbas#3. Animals were washed gently in an S-basal buffer and placed in the center of a four-quadrant plate with ascarosides in alternating quadrants, and scored after 15 minutes and 30 minutes. A chemotaxis index was calculated as: (the number of animals on ascaroside quadrants minus the number of animals on buffer quadrants)/(total number of animals).

C. elegans [3] = test: Spot attraction assay; type: in vivo
Procedure: The spot attraction assays were conducted according to a previously reported method (Pungaliya et al., PNAS 106:7708-13 (2009); Srinivasan et al., Nature 454:1115-18 (2008), which are hereby incorporated by reference in their entirety). For both C. elegans hermaphrodites and males, 50-60 worms were harvested daily at the fourth larval stage (L4) and stored segregatedly by sex at 20° C. overnight, to be used as young adults the following day. For the competition experiments, two conditions were used: 120 nM ascr#3 and 10 nM icas#3 (Condition 1), or 12 μM ascr#3 and 1 μM icas#3 (Condition 2) in water containing 10% ethanol. Aliquots were stored at −20° C. in 20 μL tubes. 10% ethanol in water was used as control.
Attraction assays with hbas#3 were conducted as previously reported (Srinivasan et al., Nature 454:1115-18 (2008); Pungaliya et al., Proc. Natl. Acad. Sci. U.S.A. 106:7708-13 (2009), which are hereby incorporated by reference in their entirety). For the attraction assays, 50-60 hermaphrodite worms were harvested daily at the early fourth larval stage (L4) and stored at 20° C. overnight to be used as young adults the following day. Hbas#3 was dissolved in water containing 10% ethanol. Aliquots were stored at −20° C. in 20 μL tubes. 10% ethanol in water was used as control.

S. glaseri = test: Ascaroside function (Table 12); type: in vivo; details: listed = has this function
Procedure: as §1

[4] = system: Several of the tested nematode species; test: Retention assay; type: in vivo; details: 1 nM, 1 μM and 1 mM tested
Procedure: OP50 E. coli was grown on a standard 5 cm agar plate (made with standard Nematode Growth Medium). The bacterial lawn was 16 mm in diameter and was grown overnight at 20° C. before being used in trials. Two 4 mm spots (0.6 μL) were placed on opposite sides of the bacterial lawn (using a transparent template to guide spot placement), and several minutes elapsed for the liquid to settle in before placing nematodes down on the assay. Recording began immediately upon worm placement. 0.6 μL of the control was placed on one side of the lawn, and 0.6 μL of the experimental cue was placed on the other side of the lawn, changing the location of the cue throughout trials between left/right and top/bottom to avoid bias.
Nematodes were isolated by gender at the L4 stage the day before being used in trials as developed adults. Worms were evenly divided and placed at two points equidistant from the foci of the scoring region. Trials were recorded for 20 minutes, and frames were collected for analysis at 1 frame per second. Results were averaged from at least three different trials. For every nematode species in this study, a different total number of worms (using water in both scoring regions) was tested to determine the minimum number of worms necessary for consistent unbiased results over a 20 minute trial. The total number of worms used in the multiple species assays depended on that species' optimal parameters. 10 worms were used for P. redivivus males and females, 20 worms were used for C. elegans males and O. dolichuridae males, and 14 worms were used for S. glaseri males. The Automated Software was used to compare worm occupancy in each scoring region over time, and the Chemotaxis Index (Bargmann et al., Cell 74:515-27 (1993), which is hereby incorporated by reference in its entirety) was adapted to score preference or avoidance to each ascaroside.
A video camera attached to the microscope produced a digital video stream, which was then analyzed. The ratio of the time the average worm spent in each region of interest was calculated for every trial. For ease of implementation, all worms in a single experiment were assumed to be roughly the same size. Thus worm pixels were counted instead of whole worms, allowing fractions of a worm in the region of interest to be taken into account. It also eliminated the need for a shape-based worm identification algorithm, and allowed each frame to be analyzed independently. A band-pass filter was applied to each frame to eliminate the effect of uneven lighting and also accentuate the worms against the background. The worm was then identified after thresholding the filtered image. Throughout each experiment, the locations and sizes of the regions of interest were known. Through the filtering described above, it is known which pixels are occupied by worms and which ones are not. Thus, the ratio of worm-pixels to all pixels inside the region of interest can be calculated to produce the worm-occupancy ratio. This calculation was done for every frame, giving a plot output of worm-occupancy ratio vs. time for each region.

[5] = system: Meloidogyne javanica, M. floridensis, M. incognita, M. hapla; test: Ascaroside function (Table 12); type: in vivo, Meloidogyne spp.; details: for predicted function in Meloidogyne species: alone, in concert, and/or in concert with ascr#9 or other ascarosides; for Dispersal (of dauer larvae, infectious juveniles) / Repel Females/Herm.: entries with asterisk (predicted)
Procedure: (§2) Ascarosides ascr#10, ascr#16, ascr#18, ascr#20, and ascr#22 were detected in certain species of Meloidogyne plant parasitic nematodes (FIG. 83) and identified using high-resolution mass spectrometry (FIGS. 84-88).
as §1

[6] = system: Heterorhabditis bacteriophora, H. zealandica, H. floridensis; test: Ascaroside function (Table 12); type: in vivo, Heterorhabditis spp.; details: for predicted function in Heterorhabditis: alone, in concert, and/or in concert with ascr#9 or other ascarosides; for Dispersal (of dauer larvae, infectious juveniles) / Repel Females/Herm.: entries with asterisk (predicted)
Procedure: as §2, §1

C. elegans males = test: Attraction assay (long-range, point source); type: in vivo; details: 10 cm plate
Procedure: 10 cm standard chemotaxis plates were prepared (Bargmann et al., Cell 74:515-27 (1993), which is hereby incorporated by reference in its entirety) and stored at 4° C. until the day before use. Standard 1 cm-diameter copper pipes were sectioned into 1 cm-tall segments to use for the holding chambers. The females/hermaphrodites were isolated overnight, washed 3 times in M9 buffer, and then allowed to wander on a plate pre-conditioned with 50 uL of 1000× treptomycin for 2 hours to kill any bacteria that might produce a false positive attractant. The nematodes were then washed 3 times, and the supernatant from the last wash was placed in a copper chamber, as the control, 1 cm from the border of the 10 cm plate. The nematodes were suspended in M9 within the copper chamber, 1 cm from the border opposite the control chamber. After 6 hours, they were subsequently removed and replaced with 3 μL of 1M sodium azide. 100 C. elegans adult males were isolated overnight, washed several times in ddH2O, and placed at the center of the agar plate. After several hours, males paralyzed within 2 cm of each region were scored. The Chemotaxis Index (Bargmann et al., Cell 74:515-27 (1993), which is hereby incorporated by reference in its entirety) was then used to score male chemotaxis to either point source.

C. elegans [7] = details: in vivo; cited from earlier work
S. feltiae = test: Ascaroside function (Table 12); type: in vivo, Steinernema feltiae; details: listed = has this function
Procedure: as §1

C. elegans [8] = details: cited from earlier work

C[C@@H]1O[C@@H](OCCCCC(=O)O)[C@H](O)C[C@H]1O [oscr#9, 5-(3′R,5′R-Dihydroxy-6′S-methyl-(2H)-tetrahydropyran-2′-yloxy)pentanoic acid]
Attract Males (Panagrellus redivivus): oscr#9

C[C@H](CCCC/C=C/C(=O)O)O[C@@H]1O[C@@H](C)[C@H](OC(=O)c2ccc(O)cc2)C[C@H]1O [hbas#3, (8R)-(3′R-Hydroxy-5′R-(4-hydroxybenzoyloxy)-6′S-methyl-(2H)-tetrahydropyran-2′-yloxy)non-(2E)-enoic acid]
Attract Males (C. elegans [1]): ([strong]) | concentration as low as which strongly attracted C. elegans (C. elegans [2]): 10 femtomolar | attraction of wild-type (N2) hermaphrodites (C. elegans [3]; dose dependent): attracted

C[C@H](CC/C=C/C(=O)O)O[C@@H]1O[C@@H](C)[C@H](O)C[C@H]1O [ascr#7]
Attract Males (C. elegans [1]): ascr#7 | Attract Males (S. glaseri): ascr#7 | Attract Males (Panagrellus redivivus): ascr#7 | preference for ascaroside-conditioned areas [4]: preferred areas conditioned

CC1O[C@@H](OCCCCCCCCC(=O)O)C(O)C[C@H]1O (stereo partly drawn) [oscr#10, 9-(3′R,5′R-Dihydroxy-6′S-methyl-(2H)-tetrahydropyran-2′-yloxy)nonanoic acid]
Repel Males (Panagrellus redivivus): oscr#10

CC1OC(O[C@H](C)CCCCCCCCC(=O)O)C(O)CC1O (some centres unmarked) [ascr#18]
predicted function in Meloidogyne species [5]: act as dispersants and repellants | Dispersal (of dauer larvae, infectious juveniles) [5]: ascr#18* | Repel Females/Herm. [5]: ascr#18* | predicted function in Heterorhabditis [6]: act as dispersants and repellants | Dispersal (of dauer larvae, infectious juveniles) [6]: ascr#18* | Repel Females/Herm. [6]: ascr#18*

C[C@H](CCCCCCCCCCC(=O)O)O[C@@H]1O[C@@H](C)[C@H](O)C[C@H]1O [ascr#22]
predicted function in Meloidogyne species [5]: act as dispersants and repellants | Dispersal (of dauer larvae, infectious juveniles) [5]: ascr#22* | Repel Females/Herm. [5]: ascr#22* | predicted function in Heterorhabditis [6]: act as dispersants and repellants | Dispersal (of dauer larvae, infectious juveniles) [6]: ascr#22* | Repel Females/Herm. [6]: ascr#22*

C[C@H](CCCCC(=O)O)O[C@@H]1O[C@@H](C)[C@H](OC(=O)c2c[nH]c3ccccc23)C[C@H]1O [icas#1]
Attract Females/Herm. (C. elegans [1]): icas#1 ([strong]) | Attract Males (C. elegans [1]): icas#1 ([strong]) | attraction in spot attraction assay (C. elegans [3]; 1 pmol (high concentrations), N2 hermaphrodites and him-5 males): attractive to both C. elegans sexes; also recorded: attracted both males and hermaphrodites

CC(=O)CC[C@@H](C)O[C@@H]1O[C@@H](C)[C@H](O)C[C@H]1O[C@@H]1O[C@H](CO)[C@@H](O)[C@H](O)[C@H]1O [ascr#4]
Promote Dauer Formation (C. elegans [1]): ascr#4

CC1O[C@@H](O[C@H](C)CCCC/C=C/C(=O)O)[C@@H](O)C[C@H]1O (some centres unmarked) [ascr#3]
Attract Males (C. elegans [1]): ascr#3 | Promote Dauer Formation (C. elegans [1]): ascr#3 ([strong]) | Repel Females/Herm. (C. elegans [1]): ascr#3 | amount as low as which elicited C. elegans male attraction (C. elegans males): 5 femtomol | male attraction from a distance (C. elegans males): chemotax towards | Attract Males (S. glaseri): ascr#3 | Attract Males (Panagrellus redivivus): ascr#3 | dauer-inducing activity (C. elegans [7]): individually promote dauer entry | preference for ascaroside-conditioned areas [4]: preferred areas conditioned | Dispersal (of dauer larvae, infectious juveniles) (S. feltiae): ascr#3 | most active amount for attraction (C. elegans [8]; from 1 μM concentration): ~1 pmol | response of social and solitary hermaphrodites (C. elegans [8]; high dauer-inducing concentrations): strongly deter both social and solitary hermaphrodites | response of males and hermaphrodites (C. elegans [8]; in vivo): strongly attracts males but repels hermaphrodites

CC1OC(O[C@H](C)CCCCCCCC(=O)O)C(O)CC1O (some centres unmarked) [ascr#16]
predicted function in Meloidogyne species [5]: act as dispersants and repellants | Dispersal (of dauer larvae, infectious juveniles) [5]: ascr#16* | Repel Females/Herm. [5]: ascr#16*

CC1OC(O[C@H](C)CCCCCCCCCC(=O)O)C(O)CC1O (some centres unmarked) [ascr#20]
predicted function in Meloidogyne species [5]: act as dispersants and repellants | Dispersal (of dauer larvae, infectious juveniles) [5]: ascr#20* | Repel Females/Herm. [5]: ascr#20*

Source: US9487551B2, “Small molecule compounds that control mammal-pathogenic nematodes” (California Institute of Technology, priority 2011, dated 2016)
